Results: ChEMBL document CHEMBL4842323, “Aromatic Polyketides and Hydroxamate Siderophores from a Marine-Algae-Derived Streptomyces Species” (J Nat Prod, 2021)
Counter-ions that a name gives are not always drawn. The source made the active and inactive calls. No cut-off for these calls is given here.

What was measured:
B16 = assay: Cytotoxicity against mouse B16 cells assessed as reduction in cell viability incubated for 72 hrs by MTT assay; format: functional, cell-based
Escherichia coli = assay: Antibacterial activity against Escherichia coli ATCC11775 assessed as inhibition of bacterial growth incubated for 12 hrs by agar dilution method; format: functional, organism-based
Nakaseomyces glabratus = assay: Antifungal activity against Candida glabrata ATCC2001 assessed as inhibition of fungal growth incubated for 12 hrs by agar dilution method; format: functional, organism-based
Pseudomonas aeruginosa = assay: Antibacterial activity against Pseudomonas aeruginosa ATCC10145 assessed as inhibition of bacterial growth incubated for 12 hrs by agar dilution method; format: functional, organism-based
Staphylococcus aureus [1] = assay: Antibacterial activity against Staphylococcus aureus ATCC6538 assessed as inhibition of bacterial growth incubated for 12 hrs by agar dilution method; format: functional, organism-based
Candida albicans = assay: Antifungal activity against Candida albicans ATCC10231 assessed as inhibition of fungal growth incubated for 12 hrs by agar dilution method; format: functional, organism-based
Staphylococcus aureus [2] = assay: Antibacterial activity against methicillin-resistant Staphylococcus aureus subsp. aureus ATCC43300 assessed as inhibition of bacterial growth incubated for 12 hrs by agar dilution method; format: functional, organism-based
[3] = Binding affinity to Fe3+ assessed as compound-Fe3+ complex formation incubated for 3 hrs by Chrome Azurol S assay

Structure (SMILES) | Activity (B16) | Activity (Escherichia coli) | Activity (Nakaseomyces glabratus) | Activity (Pseudomonas aeruginosa) | Activity (Staphylococcus aureus [1]) | Activity (Candida albicans) | Activity (Staphylococcus aureus [2]) | EC50 [3] [µM]
COc1cc(Cc2cccc(O)c2)oc(=O)c1 | inactive | inactive | inactive | inactive | inactive | inactive | inactive | 
CC(=O)N(O)CCCCCNC(=O)CCC(=O)N(O)CCCCCNC(=O)CCC(=O)N(O)CCCCCN [DEFEROXAMINE MESYLATE] |  |  |  |  |  |  |  | 20.2
COc1cc(Cc2cccc(O)c2C(=O)c2ccccc2)oc(=O)c1 | inactive | inactive | inactive | inactive | inactive | inactive | inactive | 
CC(=O)N(O)CCCCCNC(=O)CCC(=O)N(O)CCCCCNC(=O)/C=C/c1ccccc1 | inactive | inactive | inactive | inactive | inactive | inactive | inactive | 39.1
O=C1CCC(=O)N(O)CCCCCNC(=O)CCC(=O)N(O)CCCCCNC(=O)CCC(=O)N(O)CCCCCN1 [NOCARDAMINE] | inactive | inactive | inactive | inactive | inactive | inactive | inactive | 22.4
COc1cc([C@@H]2c3cccc(O)c3C(=O)C[C@@]2(O)Cc2ccccc2)oc(=O)c1 | inactive | inactive | inactive | inactive | inactive | inactive | inactive | 
CC(=O)N(O)CCCCCNC(=O)CCC(=O)N(O)CCCCCNC(=O)CCc1ccccc1 | inactive | inactive | inactive | inactive | inactive | inactive | inactive | 12.9
COc1cc(-c2c(O)cccc2-c2ccccc2)oc(=O)c1 | inactive | inactive | inactive | inactive | inactive | inactive | inactive | 
